Assay results from ChEMBL document CHEMBL1154906, “Additional insights on the bastadins: isolation of analogues from the sponge Ianthella cf. reticulata and exploration of the oxime configurations” (J Nat Prod, 2010).
The source made the active and inactive calls. The rule behind the calls is not given here.

Key:
[1] = tested on: Trypanosoma brucei brucei; experiment: Antitrypanosomal activity against Trypanosoma brucei brucei 221 after 48 hrs by ATP-bioluminescence assay; type: functional, organism-based; settings: for IC50: Trypanosoma brucei, 221, 48 h
[2] = tested on: HCT-116; experiment: Cytotoxicity against human HCT116 cells after 7 days by methylene blue staining; type: functional, cell-based

Row | Compound | Activity [1] | Activity [2] | other results
1 | O=C(NCCc1ccc(O)c(Br)c1)/C(Cc1cc(Br)c(O)c(Oc2c(Br)cc(C/C(=N\O)C(=O)NCCc3ccc(O)c(Br)c3)cc2Br)c1)=N\O | inactive |  | 
2 | O=C1NCCc2cc(Br)c(O)c(c2)Oc2ccc(cc2Br)[C@H](O)CNC(=O)/C(=N/O)Cc2cc(Br)c(O)c(c2)Oc2c(Br)cc(cc2Br)C/C1=N\O | inactive |  | 
3 | O=C1NCCc2cc(Br)c(O)c(c2)Oc2ccc(cc2Br)CCNC(=O)/C(=N\O)Cc2cc(Br)c(O)c(c2)Oc2c(Br)cc(cc2Br)C/C1=N/O | inactive | inactive | 
4 | O=C1NCCc2ccc(c(Br)c2)Oc2cc(cc(Br)c2O)CCNC(=O)/C(=N/O)Cc2cc(Br)c(O)c(c2)Oc2c(Br)cc(cc2Br)C/C1=N\O [BASTADIN 19] |  | inactive | IC50 [1]: 1310 nM
5 | O=C(NCCc1ccc(O)c(Br)c1)/C(Cc1cc(Br)c(O)c(-c2cc(C/C(=N/O)C(=O)NCCc3ccc(O)c(Br)c3)cc(Br)c2O)c1)=N\O |  | inactive | 
6 | O=C1NCCc2ccc(c(Br)c2)Oc2cc(cc(Br)c2O)CCNC(=O)/C(=N/O)Cc2cc(Br)c(O)c(c2)Oc2c(Br)cc(cc2Br)C/C1=N/O |  | inactive | 
7 | O=C1NCCc2ccc(c(Br)c2)Oc2cc(ccc2O)CCNC(=O)/C(=N/O)Cc2cc(Br)c(O)c(c2)Oc2c(Br)cc(cc2Br)C/C1=N\O [BASTADIN 13] |  |  | IC50 [1]: 1770 nM
8 | O=C1NCCc2cc(Br)c(O)c(c2)Oc2ccc(cc2)CCNC(=O)/C(=N/O)Cc2cc(Br)c(O)c(c2)Oc2c(Br)cc(cc2Br)C/C1=N\O | inactive |  | 
9 | O=C(NCCc1ccc(O)c(Br)c1)/C(Cc1cc(Br)c2c(c1)-c1cc(C/C(=N\O)C(=O)NCCc3ccc(O)c(Br)c3)cc(Br)c1OCO2)=N\O |  | inactive | 
10 | O=C1N/C=C/c2ccc(c(Br)c2)Oc2cc(cc(Br)c2O)CCNC(=O)/C(=N/O)Cc2ccc(c(Br)c2)Oc2cc(cc(Br)c2O)C/C1=N\O | inactive |  | 
11 | O=C1N/C=C/c2ccc(c(Br)c2)Oc2cc(cc(Br)c2O)CCNC(=O)/C(=N/O)Cc2cc(Br)c(c(Br)c2)Oc2cc(cc(Br)c2O)C/C1=N\O [BASTADIN 4] | inactive |  | IC50 ([2]; HCT-116, 168 h): 1280 nM
12 | O=C1NCCc2cc(Br)c(O)c(c2)Oc2c(Br)cc(cc2Br)CCNC(=O)/C(=N/O)Cc2cc(Br)c(O)c(c2)Oc2c(Br)cc(cc2Br)C/C1=N\O | inactive | inactive | 
